Laboratory results: US20240148686A1, “PHARMACEUTICAL COMPOSITION OF FORSKOLIN-ISOFORSKOLIN AND PENTACYCLIC TRITERPENOID COMPOUND, AND APPLICATION THEREOF” (CHINA PHARMACEUTICAL UNIVERSITY, priority 2021, published 2024)
Marks after values point to notes of the source that are not given here.

What was measured:
[1] = tested on: NAFLD model mice (obesity and fatty liver models induced by a high-fat diet); assay: Therapeutic effects on obesity and fatty liver (NAFLD) models induced by a high-fat diet; format: in vivo, C57 mice; settings: for serum FFA content / serum TC content / hepatic TG content: fatty liver model mice, total 20 mg/kg intragastric once a day for 12 weeks, x±s; for serum FFA content / serum TC content: high-fat diet 12 weeks; for hepatic TG content: liver homogenate supernatant
Description: (§1) Notes: Statistical analysis is conducted by the GraphPad Prism 8.0 statistical software, and statistical analysis results are analyzed by t-Test. Compared with a model group, *P<0.05 indicates a statistically-significant difference between the groups: **P<0.01, […], and ****P<0.0001.
160 SPF-grade male C57 mice at 8 weeks to 9 weeks were adaptively raised for one week, and then 140 obese mice with a consistent body weight were selected and evenly divided into 14 groups with 10 mice per group, including a model group (M group), a forskolin group (F group), an isoforskolin group (IF group), an asiatic acid group (AA group), an asiaticoside group (AS group), an OA group (OA group), a betulinic acid group (BA group), a forskolin+asiatic acid combined administration group (F+AA group), a forskolin+asiaticoside combined administration group (F+AS group), forskolin+OA combined administration groups (low, medium, and high) (F+OA-1:4, 1:1, and 4:1 groups), a forskolin+betulinic acid combined administration group (F+BA group), and an isoforskolin+OA combined administration group (IF+OA group). The mice were fed by a high-fat diet (including 35% of fat, 26% of carbohydrates, and 26% of proteins) continuously for 12 weeks to establish obesity and fatty liver models, and during the modeling, a drug was intragastrically administered continuously for 12 weeks. The experimental animals were raised in ordinary mouse cages in an environment with a room temperature of 24±2° C., a humidity of 40% to 60%, and a 12 h light/12 h dark cycle.
Administration mode: A drug was prepared with a 0.5% CMC-Na solution as a solvent into a suspension, and the suspension was intragastrically administered once a day continuously for 12 weeks.
The mice were administered with a drug continuously for 12 weeks, and after the last administration, the mice were fasted without water deprivation for 12 h; a body weight of each mouse was measured, eyeballs were removed, blood was collected, and a liver was taken out and weighed; a part of the liver tissue was stored in 4% paraformaldehyde (PFA), and another part of the liver tissue was stored in liquid nitrogen; and inguinal fat was collected from a right thigh of each mouse, weighed, and stored in liquid nitrogen.
A blood sample was allowed to stand in a 4° C. refrigerator for 4 h and then centrifuged at 3,500 rpm for 10 min to 15 min; and a resulting supernatant was collected and tested by a blood bio-chemical analyzer to determine the FFA and TC levels in serum. The liver tissue stored in 4% PFA was frozen and sectioned, and then stained with oil red O to obtain slide specimens. The liver tissue stored in liquid nitrogen was homogenized and then centrifuged, and a resulting supernatant was collected and then tested by a kit to determine a TG content.

[2] = tested on: chronic liver fibrosis model mice induced by CCl4; assay: Therapeutic effects on chronic liver fibrosis model induced by CCl4; format: in vivo, C57BL/6 mice; settings: total 20 mg/kg intragastric once a day for 8 weeks, x±s
Description: as §1
140 C57 mice were selected and evenly divided into 14 groups with 10 mice per group, including a model group (M group), a forskolin group (F group), an isoforskolin group (IF group), an asiatic acid group (AA group), an asiaticoside group (AS group), an OA group (OA group), a betulinic acid group (BA group), a forskolin+asiatic acid combined administration group (F+AA group), a forskolin+asiaticoside combined administration group (F+AS group), forskolin+OA combined administration groups (low, medium, and high) (F+OA-1:4, 1:1, and 4:1 groups), a forskolin+betulinic acid combined administration group (F+BA group), and an isoforskolin+OA combined administration group (IF+OA group). Every Thursday and Sunday, all mice each were intraperitoneally injected with a 5% carbon tetrachloride (CCl4)-containing olive oil solution continuously for 8 weeks at an injection volume of 20 mL/kg to obtain a liver fibrosis model caused by chronic liver damage.
Administration mode: A drug was prepared with a 0.5% CMC-Na solution as a solvent into a suspension, and the suspension was intragastrically administered once a day continuously for 8 weeks.
The mice were administered with a drug continuously for 8 weeks, and after the last administration, the mice were fasted without water deprivation for 12 h; a body weight of each mouse was measured, eyeballs were removed, blood was collected, and a liver was taken out and weighed; and a part of the liver tissue was stored in 4% PFA, and another part of the liver tissue was stored in liquid nitrogen.
A blood sample was allowed to stand in a 4° C. refrigerator for 4 h and then centrifuged at 3,500 rpm for 10 min to 15 min; and a resulting supernatant was collected and tested by a kit to determine AST and ALT levels. The liver tissue stored in liquid nitrogen was homogenized and then centrifuged, and a resulting supernatant was collected and then tested by an enzyme-linked immunosorbent assay (ELISA) kit to determine a PCIII content. The liver tissue stored in 4% PFA was dehydrated, fixed, sectioned, and stained to obtain H&E-stained and Sirius red-stained slide specimens.

| Compound | serum FFA content [1] | serum TC content [1] | hepatic TG content [1] | serum ALT content [2] | serum AST content [2] | body weight increase (FIG. 1), in words ([1]; NAFLD model mice, total 20 mg/kg intragastric daily, 12 weeks) |
| --- | --- | --- | --- | --- | --- | --- |
| C=C(C)[C@@H]1CC[C@]2(C(=O)O)CC[C@]3(C)[C@H](CC[C@@H]4[C@@]5(C)CC[C@H](O)C(C)(C)[C@@H]5CC[C@]43C)[C@@H]12 [BA, Betulinic acid] | 1.245 ± 0.201 mmol/L | 7.02 ± 0.63 mmol/L | 1.10 ± 0.08 mmol/L | 849 ± 34 U/L | 422 ± 45* U/L | – |
| Asiaticoside | 1.238 ± 0.186* mmol/L | 7.09 ± 0.34 mmol/L | 1.18 ± 0.08 mmol/L | 882 ± 25 U/L | 406 ± 63* U/L | – |
| C[C@H]1[C@H](C)CC[C@]2(C(=O)O)CC[C@]3(C)C(=CC[C@@H]4[C@@]5(C)C[C@@H](O)[C@H](O)[C@@](C)(CO)[C@@H]5CC[C@]43C)[C@H]12 [AA, Asiatic acid] | 1.286 ± 0.143 mmol/L | 7.26 ± 0.74 mmol/L | 1.17 ± 0.12 mmol/L | 815 ± 53* U/L | 399 ± 22* U/L | – |
| Forskolin | 1.324 ± 0.124 mmol/L | 7.44 ± 0.86 mmol/L | 1.01 ± 0.07* mmol/L | 922 ± 32 U/L | 447 ± 31 U/L | can inhibit the increase of a body weight of mice similarly |
| CC1(C)CC[C@]2(C(=O)O)CC[C@]3(C)C(=CC[C@@H]4[C@@]5(C)CC[C@H](O)C(C)(C)[C@@H]5CC[C@]43C)[C@@H]2C1 [OA, Oleanolic acid] | 1.182 ± 0.113* mmol/L | 6.84 ± 0.54* mmol/L | 1.03 ± 0.09* mmol/L | 888 ± 53 U/L | 436 ± 51 U/L | – |
